For the experiment, the target named is Mitogen-activated protein kinase 1 (Mus musculus, UniProt P63085). The experiment is described as follows: Active ERK2 (aERK) Assay: Activated ERK2 activity was also determined in the IMAP assay format using the procedure outlined above. 1 μl of 25× compound was added to 14 μl of kinase buffer containing 0.25 ng fully phosphorylated, active Mouse ERK2 protein. Following a 30 minute incubation, the reactions were initiated by addition of 10 μl of kinase buffer containing 1 μM ERK2 IMAP substrate peptide (0.9 μM unlabeled IPTTPITTTYFFFK-CONH2 and 100 nM IPTTPITTTYFFFK(5-carboxyfluorescein)-CONH2) and 30 μM ATP. Reactions proceeded for 30 minutes before termination by addition of 60 μl IMAP detection beads in binding buffer. Plates were read as above after 30 minute binding equilibration. Active compounds were reconfirmed in an independent assay.
Sequence of Mitogen-activated protein kinase 1 (P63085 whole entry): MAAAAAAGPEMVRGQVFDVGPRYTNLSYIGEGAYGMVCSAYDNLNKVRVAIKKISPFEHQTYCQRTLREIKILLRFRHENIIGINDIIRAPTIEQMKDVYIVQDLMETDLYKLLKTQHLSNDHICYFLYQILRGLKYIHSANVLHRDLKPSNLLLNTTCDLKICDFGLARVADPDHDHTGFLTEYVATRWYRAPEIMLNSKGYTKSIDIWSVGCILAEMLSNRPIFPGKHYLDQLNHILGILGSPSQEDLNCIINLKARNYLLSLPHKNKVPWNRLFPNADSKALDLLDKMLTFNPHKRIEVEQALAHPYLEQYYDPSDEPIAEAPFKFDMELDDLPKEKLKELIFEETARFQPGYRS

SMILES strings stand for the structures.

Broadly, the IC50 is the concentration that gives 50% inhibition. A high value points to a need for much substance.

As to `Cc1cc(-c2n[nH]c3ccc(C(=O)N[C@H]4CCC[C@@](O)(Cn5cc6cc(F)ccc6n5)C4)cc23)ccn1` (relative stereo), the IC50 came to 0.772 µM. Molecule `Cc1cc(-c2n[nH]c3ccc(C(=O)N[C@@H]4CCC[C@](O)(Cn5cc6cccnc6n5)C4)cc23)ccn1` (relative stereo) displayed an IC50 of 0.404 µM.

Values taken from ChEMBL document CHEMBL3886748, “Indazole derivatives useful as ERK inhibitors” (2016).
